Consider one compound from patent publication US20240262795A1, “PYRAZINE COMPOUNDS AS INHIBITORS OF FLT3” (Biomea Fusion, Inc., priority 2021, published 2024).

Molecules are shown by their SMILES. Some results are limits rather than exact numbers.

One experiment relates to MOLM-13. The experiment is described as follows: Proliferation inhibition, CellTiter-Glo, MOLM-13. The experiment is classed as cell-based, human. Conditions: Homo sapiens, 96 h; MOLM-13 cells, IC50 (4 days), CellTiter-Glo; read-out: MOLM-13 IC50. The method, boiled down:
(§1)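 About 10,000 cells per well in RPMI-1640 with 10% FBS. Compounds added 2 h after seeding at eight concentrations in duplicate (0.2% DMSO as 100% proliferation), then incubated ~96 h at 37° C, 5% CO2. ATP measured by CellTiter-Glo luminescence; IC50 from four-parameter logistic fit.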
(In ATP-based viability assays light output follows the ATP content of the culture.)

In a further experiment the test system is MV-4-11. The experiment is described as follows: Proliferation inhibition, CellTiter-Glo, MV-4-11. Conditions: Homo sapiens, MV4-11, 96 h; MV-4:11 cells, IC50 (4 days), CellTiter-Glo; read-out: MV-4:11 IC50. The experiment is classed as cell-based, human. The method, boiled down:
as §1

A further experiment deals with T1, FLT3-ITD (Homo sapiens, UniProt P36888, DUP595-601).
T1 construct: purchased Signalchem F-12-12CG-10
T1 sequence (P36888 with tags, fused parts or gaps DUP595-601 limits assumed): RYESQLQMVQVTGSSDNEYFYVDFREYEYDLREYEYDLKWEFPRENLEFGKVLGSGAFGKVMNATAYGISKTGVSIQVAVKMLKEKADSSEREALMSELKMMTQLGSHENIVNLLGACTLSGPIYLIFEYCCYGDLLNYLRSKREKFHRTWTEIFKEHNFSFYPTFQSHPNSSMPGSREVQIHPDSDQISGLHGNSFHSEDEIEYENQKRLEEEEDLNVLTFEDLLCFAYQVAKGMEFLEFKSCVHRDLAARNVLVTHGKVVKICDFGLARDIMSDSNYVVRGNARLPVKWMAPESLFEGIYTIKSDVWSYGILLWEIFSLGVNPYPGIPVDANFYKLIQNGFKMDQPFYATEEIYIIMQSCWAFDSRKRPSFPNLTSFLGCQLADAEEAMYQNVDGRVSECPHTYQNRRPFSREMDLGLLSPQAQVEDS
Nature of the experiment: FLT3-ITD Lance Ultra TR-FRET kinase assay. The experiment is classed as biochemical. The method, boiled down:
(§2)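 Lance Ultra TR-FRET with 50 nM ULight-JAK-1 (Tyr1023) peptide, Eu-anti-phosphotyrosine (PT66) detection, in HEPES pH 7.5 buffer at 23° C, 30 min enzyme/compound preincubation. WT: 0.5 nM enzyme, 100 μM ATP, 30 min; ITD: 0.0625 nM, 50 μM ATP, 60 min. IC50 by four-parameter fit of 11-point 3× dilutions.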

A further experiment has as its system K-562. The experiment is described as follows: Proliferation inhibition, CellTiter-Glo, K-562. In kind it is cell-based, human. The conditions noted are these: Homo sapiens, K562, 96 h; K-562 cells, IC50 (4 days), CellTiter-Glo; read-out: K-562 IC50. The method, boiled down: as §1
The target in the next experiment is T2, WT FLT3 (Homo sapiens, UniProt P36888).
T2 construct: purchased Invitrogen PR4666C
T2 sequence (P36888 564-993 limits assumed): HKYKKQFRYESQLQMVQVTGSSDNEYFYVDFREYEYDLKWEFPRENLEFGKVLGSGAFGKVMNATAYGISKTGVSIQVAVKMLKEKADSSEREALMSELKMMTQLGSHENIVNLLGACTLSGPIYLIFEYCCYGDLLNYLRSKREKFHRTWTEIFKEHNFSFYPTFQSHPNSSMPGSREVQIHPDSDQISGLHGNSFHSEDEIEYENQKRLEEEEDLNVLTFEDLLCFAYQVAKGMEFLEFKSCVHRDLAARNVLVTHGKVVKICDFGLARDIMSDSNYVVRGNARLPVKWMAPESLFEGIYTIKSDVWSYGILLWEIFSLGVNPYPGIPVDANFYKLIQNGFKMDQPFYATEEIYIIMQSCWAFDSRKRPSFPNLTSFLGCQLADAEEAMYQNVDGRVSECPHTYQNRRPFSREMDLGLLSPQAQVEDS
The experiment is described as follows: WT FLT3 Lance Ultra TR-FRET kinase assay. The experiment is classed as biochemical. The method, boiled down: as §2
(In general: TR-FRET usually uses a lanthanide donor and a delayed reading to cut background.)

For the compound `CCc1nc(C(N)=O)c(Nc2cccc([C@@H](C)CNC(=O)CN(C)C(=O)/C=C/CN3CCC3)c2)nc1CC(C)C` [Compound 517, (R, E)-3-((3-(1-(2-(4-(azetidin-1-yl)-N-methylbut-2-enamido)acetamido)propan-2-yl)phenyl)amino)-6-ethyl-5-isobutylpyrazine-2-carboxamide], the IC50 in the experiment on MOLM-13 is 1 to 10 nM; with MV-4-11, 1 to 10 nM; against FLT3-ITD, 0.501 to 1 nM; in the experiment on K-562, greater than 500 nM; against WT FLT3, 0.501 to 1 nM.

By IC50 is commonly meant the point on the concentration scale where inhibition reaches its midpoint.
